One experiment addresses EZH2 (rPRC2) (Homo sapiens, UniProt Q15910). The experiment in a line: EZH2 assay: rPRC2, biotinylated oligonucleosomes, 3H SAM methyl transfer (FlashPlate scintillation). It is filed as biochemical. The note with it: biotinylated oligonucleosome substrate.
Experiment [1] has as its system H3K27me3 mark in HeLa cells. The experiment in a line: H3K27me3 MSD Hela Assay. Type of experiment: cell-based. Here is the method:
Trypsinized HeLa cells were counted and diluted in 10% DMEM (Life Technologies, Cat. #10569) to 5000 cells/75 μL. Seventy-five […] of cells were place in each well of a 96-well flat-bottomed plate and incubated at 37° C. for 4 hours. Twenty-five μL of test compound (at various concentrations) was added to the cells and incubation continued at 37° C. for 96 hours. Media was then removed and the cells rinsed once with ice cold PBS. Forty μL of ice-cold MSD Buffer AT (10 mM HEPES, pH 7.9, 5 mM MgCl2, 0.25M sucrose, Benzonase (1:10000), 1% Triton X-100 supplemented with fresh 1× Protease Inhibitor cocktail and 1 mM 4-(2-Aminoethyl)benzenesulfonyl fluoride hydrochloride (AEBSF)) was added to each well and the plates placed on ice for 30 minutes. Ten μL of 5M NaCl was then added to each well and incubation on ice continued for another 15 minutes. The material in each well was suspended pipetting up and down and then transferred to a new 96 well plate. The emptied wells were rinsed with 150 uL ice-cold 20 mM Tris pH 7.5, 1 mM EDTA, 1 mM EGTA, supplemented with fresh 1× Protease Inhibitor cocktail and 1 mM AEBSF (“NO salt NO detergent buffer) and transferred to the respective wells in the new plate. Three hundred μL of NO Salt NO detergent buffer was then added to each well of lysates and the plates frozen at −80° C.
On the same day, an appropriate number of MSD standard bind 96-well plates were coated with 30 μL/well of total H3 capture antibody (Millipore. Cat #MAB3422) at 1 μg/mL concentration in PBS. The antibody solution was evenly distributed first by tapping gently on the sides of the plates and then by shaking the plates for a few minutes at 1000 rpm. Antibody coated plates were stored at 4° C. overnight.
The next day the lysates are thawed to RT. The antibody coated MSD plates are washed 3× with TBS-T (Tris-buffered saline (Fisher Scientific, Cat #BP2471-1)+0.2% Tween-20). One-hundred fifty μL of 5% Blocker A in TBS-T is added to each well. The wells are covered and shaken on a shaker at RT for one hour. The Blocker A step is repeated a second time. After removing the blocker, 25 μL of cell lysate is transferred into each antibody coated well. The plates are shaken for 2 hours at RT, the lysate removed and the plates again washed with Blocker A in TBS-T. Twenty-five μL of appropriate freshly prepared antibody mix (including both primary and secondary antibodies) is added to each well and the plates shaken for 1 hour at RT.
Both H3 antibodies were obtained from Cell Signalling (Cat #s 4499 and 9733). The goat anti-rabbit antibody was obtained from Meso-Scale Discovery (Cat #R32AB-1).
The antibody mix was then removed and the wells washed with Blocker A. One hundred-fifty μL of freshly prepared 1×MSD Read Buffer (Meso-Scale Discovery; Cat #R927C-2) was then added to each well and the plates read on a MSD Sector 2400 Plate Reader.
Data was analyzed using Assay Assistant (Constellation Pharmaceuticals In-house product) and Activity Base (IDBS Ltd, Surrey, UK) template. Data files were imported to Assay Assistant and assay conditions were specified. A unique Analysis ID was created and the data files exported to Activity Base. An analysis template was created on Activity Base to measure dose-dependent inhibition of H3K27me3 mark and cell viability respectively. Readout of DMSO wells were used to normalize the data. Resulting curves were fitted using Activity base software Model 205 (IDBS Ltd. Surrey, UK). The data was checked for quality, validated and integrated in excel format using SARview (IDBS Ltd, Surrey, UK).

The target in the next experiment is Y641N EZH2 (Homo sapiens, UniProt Q15910, Y641N). The experiment in a line: Y641N EZH2 assay: as EZH2 assay, with reconstituted H3K27Me2 oligonucleosomes as substrate. It is filed as biochemical.
Sequence of Y641N EZH2 (Q15910 whole entry Y641N): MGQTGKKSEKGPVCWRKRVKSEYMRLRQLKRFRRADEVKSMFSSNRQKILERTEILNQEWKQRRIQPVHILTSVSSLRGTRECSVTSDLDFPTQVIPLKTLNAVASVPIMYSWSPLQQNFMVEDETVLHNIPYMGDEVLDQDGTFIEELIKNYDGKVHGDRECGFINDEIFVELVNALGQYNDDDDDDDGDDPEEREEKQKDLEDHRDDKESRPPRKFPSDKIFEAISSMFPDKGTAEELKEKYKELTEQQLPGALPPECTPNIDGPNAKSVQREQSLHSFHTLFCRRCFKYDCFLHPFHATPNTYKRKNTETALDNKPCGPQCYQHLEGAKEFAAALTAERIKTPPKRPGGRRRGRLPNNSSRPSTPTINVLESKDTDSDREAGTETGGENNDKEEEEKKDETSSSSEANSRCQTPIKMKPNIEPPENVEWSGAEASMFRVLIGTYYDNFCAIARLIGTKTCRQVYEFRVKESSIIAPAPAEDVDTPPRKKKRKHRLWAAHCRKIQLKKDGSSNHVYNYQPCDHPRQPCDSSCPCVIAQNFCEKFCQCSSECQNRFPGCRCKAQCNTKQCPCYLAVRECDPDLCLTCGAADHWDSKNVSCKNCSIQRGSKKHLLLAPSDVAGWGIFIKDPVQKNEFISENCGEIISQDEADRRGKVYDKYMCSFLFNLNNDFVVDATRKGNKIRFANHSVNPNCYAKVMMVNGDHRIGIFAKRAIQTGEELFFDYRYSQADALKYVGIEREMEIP
Sequence of Y641N EZH2 (O75530 whole entry partner): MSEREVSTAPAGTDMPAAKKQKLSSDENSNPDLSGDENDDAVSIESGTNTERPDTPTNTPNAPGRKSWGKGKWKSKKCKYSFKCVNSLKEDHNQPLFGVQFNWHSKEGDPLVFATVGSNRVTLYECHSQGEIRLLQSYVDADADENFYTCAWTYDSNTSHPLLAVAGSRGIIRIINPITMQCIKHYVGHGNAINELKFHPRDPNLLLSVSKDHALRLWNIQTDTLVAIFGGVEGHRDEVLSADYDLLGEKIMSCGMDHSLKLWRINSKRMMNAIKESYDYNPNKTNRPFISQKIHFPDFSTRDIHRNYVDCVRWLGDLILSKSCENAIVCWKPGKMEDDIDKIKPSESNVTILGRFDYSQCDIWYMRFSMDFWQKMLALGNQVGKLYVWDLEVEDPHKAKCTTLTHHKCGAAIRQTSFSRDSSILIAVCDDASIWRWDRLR
Sequence of Y641N EZH2 (Q15022 whole entry partner): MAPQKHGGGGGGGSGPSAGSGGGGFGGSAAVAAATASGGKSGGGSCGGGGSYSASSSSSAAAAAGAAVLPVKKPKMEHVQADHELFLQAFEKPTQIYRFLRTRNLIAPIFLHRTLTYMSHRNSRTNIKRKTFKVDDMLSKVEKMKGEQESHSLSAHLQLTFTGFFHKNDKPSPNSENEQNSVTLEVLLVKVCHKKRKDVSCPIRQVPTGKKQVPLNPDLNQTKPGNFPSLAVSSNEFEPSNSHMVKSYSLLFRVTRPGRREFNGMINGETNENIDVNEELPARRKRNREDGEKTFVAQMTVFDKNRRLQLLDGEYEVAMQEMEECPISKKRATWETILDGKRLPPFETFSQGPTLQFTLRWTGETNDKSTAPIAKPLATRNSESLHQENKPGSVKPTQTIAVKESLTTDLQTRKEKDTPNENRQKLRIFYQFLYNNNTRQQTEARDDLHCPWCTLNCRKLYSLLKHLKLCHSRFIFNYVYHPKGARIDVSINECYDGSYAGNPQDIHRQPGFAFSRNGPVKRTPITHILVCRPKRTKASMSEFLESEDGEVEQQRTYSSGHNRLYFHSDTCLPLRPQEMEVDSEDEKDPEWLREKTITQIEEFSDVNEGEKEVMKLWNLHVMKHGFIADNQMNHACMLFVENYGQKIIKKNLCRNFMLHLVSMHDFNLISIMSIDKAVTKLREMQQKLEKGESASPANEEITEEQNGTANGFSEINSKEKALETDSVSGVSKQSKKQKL
[2] abbreviates: EZH2 IC50, wild-type EZH2 (rPRC2).
Setting [3] is: Homo sapiens, HeLa, 96 h, read-out: H3K27me3_MSD_HeLa_ (EC50).
Setting [4] is: Y641N EZH2 IC50, Y641N mutant EZH2, H3K27Me2 oligonucleosome substrate.

Like-named read-outs stand apart in the source and are kept apart here.

Sequence of EZH2 (rPRC2) (Q15910 whole entry): as the sequence (Q15910 whole entry Y641N) above, with N641Y counted along it
Sequence of EZH2 (rPRC2) (O75530 whole entry partner): as the sequence (O75530 whole entry partner) above
Sequence of EZH2 (rPRC2) (Q15022 whole entry partner): as the sequence (Q15022 whole entry partner) above

In the case of `Cc1cc(C)c(CNC(=O)c2c(C)n(C(C)c3ccccc3)c3ncccc23)c(O)n1` (racemic) [Compound 146, N-((2-hydroxy-4,6-dimethylpyridin-3-yl)methyl)-2-methyl-1-(1-phenylethyl)-1H-pyrrolo[2,3-b]pyridine-3-carboxamide], the figures for the IC50 against EZH2 (rPRC2) (setting [2]) and against Y641N EZH2 (setting [4]) were under 100 nM and 100 to 1000 nM, respectively. In addition, the 50% effective concentration (EC50) in experiment [1] (setting [3]) is 400 to 2000 nM.
In the case of `Cc1cc(C)c(CNC(=O)c2c(C)n(C(C)c3ccc(F)cc3)c3ccccc23)c(=O)[nH]1` (racemic) [Compound 166, (±)-N-((4,6-dimethyl-2-oxo-1,2-dihydropyridin-3-yl)methyl)-1-(1-(4-fluorophenyl)ethyl)-2-methyl-1H-indole-3-carboxamide], the half-inhibitory concentration (IC50) on EZH2 (rPRC2) (setting [2]) is under 100 nM; on Y641N EZH2 (setting [4]) it was 100 to 1000 nM. Further, the EC50 in experiment [1] (setting [3]) was 2000 to 10000 nM.
Take `Cc1cc(C)c(CNC(=O)c2c(C)n(C(C)c3ccc(Cl)cc3)c3ccccc23)c(=O)[nH]1` (racemic) [Compound 170, (±)-1-(1-(4-chlorophenyl)ethyl)-N-((2-hydroxy-4,6-dimethylpyridin-3-yl)methyl)-2-methyl-1H-indole-3-carboxamide]: the IC50 on EZH2 (rPRC2) (setting [2]) was under 100 nM; on Y641N EZH2 (setting [4]) it was 100 to 1000 nM. Moreover, the EC50 in experiment [1] (setting [3]) was in the range of 2000 to 10000 nM.
As for `Cc1cc(C)c(CNC(=O)c2c(C)n(C(C)c3cccc(Br)c3)c3ccccc23)c(=O)[nH]1` (racemic) [Compound 171, (±)-1-(1-(3-bromophenyl)ethyl)-N-((4,6-dimethyl-2-oxo-1,2-dihydropyridin-3-yl)methyl)-2-methyl-1H-indole-3-carboxamide], the half-maximal inhibitory concentration (IC50) against EZH2 (rPRC2) (setting [2]) and against Y641N EZH2 (setting [4]) was under 100 nM in each case. For the same compound, the 50% effective concentration (EC50) in experiment [1] (setting [3]) was 2000 to 10000 nM.
As to `Cc1ccc(C(C)n2c(C)c(C(=O)NCc3c(C)cc(C)[nH]c3=O)c3ccccc32)cc1` (racemic) [Compound 172, (±)-N-((4,6-dimethyl-2-oxo-1,2-dihydropyridin-3-yl)methyl)-2-methyl-1-(1-(p-tolyl)ethyl)-1H-indole-3-carboxamide], the results for the half-inhibitory concentration (IC50) against EZH2 (rPRC2) (setting [2]) and against Y641N EZH2 (setting [4]) were under 100 nM and 100 to 1000 nM, respectively. The EC50 in experiment [1] (setting [3]) is 2000 to 10000 nM.
For `Cc1cc(C)c(CNC(=O)c2c(C)n(C(C)c3cccc(Cl)c3)c3ccccc23)c(=O)[nH]1` (racemic) [Compound 181, (±)-1-(1-(3-chlorophenyl)ethyl)-N-((4,6-dimethyl-2-oxo-1,2-dihydropyridin-3-yl)methyl)-2-methyl-1H-indole-3-carboxamide] the same measures were under 100 nM, under 100 nM and 400 to 2000 nM.
As to `Cc1cc(C)c(COC(=O)c2c(C)n(C3CCc4ccccc43)c3ncccc23)c(=O)[nH]1` (racemic) [Compound 201, (±)-(4,6-dimethyl-2-oxo-1,2-dihydropyridin-3-yl)methyl 1-(2,3-dihydro-1H-inden-1-yl)-2-methyl-1H-pyrrolo[2,3-b]pyridine-3-carboxylate], the concentration for half-maximal inhibition (IC50) is under 100 nM at EZH2 (rPRC2) (wild-type EZH2 (rPRC2), read-out: EZH2 IC50) and 100 to 1000 nM on Y641N EZH2 (Y641N mutant EZH2, H3K27Me2 oligonucleosome substrate, read-out: Y641N EZH2 IC50). Further, the EC50 in experiment [1] (Homo sapiens; HeLa cells, MSD, 96 hours; read-out: H3K27me3_MSD_HeLa_ (EC50)) lay in the range of 400 to 2000 nM.
In the case of `Cc1cc(C)c(CNC(=O)c2c(C)n(C(C)c3ccccc3)c3cnccc23)c(=O)[nH]1` (racemic) [Compound 203, (±)-N-((4,6-dimethyl-2-oxo-1,2-dihydropyridin-3-yl)methyl)-2-methyl-1-(1-phenylethyl)-1H-pyrrolo[2,3-c]pyridine-3-carboxamide], the half-inhibitory concentration (IC50) at EZH2 (rPRC2) (setting [2]) is under 100 nM; against Y641N EZH2 (setting [4]), 100 to 1000 nM. Also, the EC50 in experiment [1] (setting [3]) was in the range of 2000 to 10000 nM.
Taken in the same sequence, the figures for `COCC(C)n1c(C)c(C(=O)NCc2c(OC)cc(C)[nH]c2=O)c2cccnc21` (racemic) [Compound 204, (±)-N-((4-methoxy-6-methyl-2-oxo-1,2-dihydropyridin-3-yl)methyl)-1-(1-methoxypropan-2-yl)-2-methyl-1H-pyrrolo[2,3-b]pyridine-3-carboxamide] were under 100 nM, 100 to 1000 nM and 400 to 2000 nM.
For `COc1cc(C(C)n2c(C)c(C(=O)NCc3c(C)cc(C)[nH]c3=O)c3cccnc32)ccn1` (racemic) [Compound 207, (±)-N-((4,6-dimethyl-2-oxo-1,2-dihydropyridin-3-yl)methyl)-1-(1-(2-methoxypyridin-4-yl)ethyl)-2-methyl-1H-pyrrolo[2,3-b]pyridine-3-carboxamide] the same measures were under 100 nM, 100 to 1000 nM and 2000 to 10000 nM.
Taken in the same sequence, the figures for `Cc1cc(C)c(CNC(=O)c2c(C)n(C(C)c3cccc(S(C)(=O)=O)c3)c3ccccc23)c(=O)[nH]1` (racemic) [Compound 210, (±)-N-((4,6-dimethyl-2-oxo-1,2-dihydropyridin-3-yl)methyl)-2-methyl-1-(1-(3-(methylsulfonyl)phenyl)ethyl)-1H-indole-3-carboxamide] were under 100 nM, 100 to 1000 nM and 2000 to 10000 nM.
Take `Cc1cc(C)c(CNC(=O)c2c(C)n(C(C)C3CC3)c3ncccc23)c(=O)[nH]1` (racemic) [Compound 211, (±)-1-(1-cyclopropylethyl)-N-((4,6-dimethyl-2-oxo-1,2-dihydropyridin-3-yl)methyl)-2-methyl-1H-pyrrolo[2,3-b]pyridine-3-carboxamide]: the 50% inhibitory concentration (IC50) against EZH2 (rPRC2) (setting [2]) is under 100 nM; against Y641N EZH2 (setting [4]) it was 100 to 1000 nM. The EC50 in experiment [1] (setting [3]) lay within 400 to 2000 nM.
Turning to `Cc1cc(C)c(CNC(=O)c2c(C)n(C(C)c3ccccc3)c3ccccc23)c(O)n1` (single isomer, unassigned) [Compound 137, (R or S)—N-((2-hydroxy-4,6-dimethylpyridin-3-yl)methyl) 2-methyl-1-1-phenylethyl) 1H-indole-3-carboxamide], the EC50 in experiment [1] (HeLa cells, MSD, 96 hours; read-out: H3K27me3_MSD_HeLa_ (EC50)) fell in the range of 400 to 2000 nM.
In the case of `CCC(C)n1c(C)c(C(=O)NCc2c(C)cc(C)nc2O)c2ccccc21` (single isomer, unassigned) [Compound 147, (R or S)-1-sec-butyl-N-((2-hydroxy-4,6-dimethylpyridin-3-yl)methyl)-2-methyl-1H-indole-3-carboxamide], the concentration for a half-maximal effect (EC50) in experiment [1] (setting [3]) was in the range of 400 to 2000 nM.
As to `COc1cc(C)[nH]c(=O)c1CNC(=O)c1c(C)n(C(C)c2ccccc2)c2cnccc12` (single isomer, unassigned) [Compound 259, (R or S)-N-((4-methoxy-6-methyl-2-oxo-1,2-dihydropyridin-3-yl)rnethyl)-2-methyl-1-(1-phenylethyl)-1H-pyrrolo[2,3-c]pyridine-3-carboxamide], on EZH2 (rPRC2) (read-out: EZH2 IC50, wild-type EZH2 (rPRC2)), the concentration for half-maximal inhibition (IC50) was under 100 nM. Moreover, the EC50 in experiment [1] (read-out: H3K27me3_MSD_HeLa_ (EC50); HeLa cells, MSD, 96 hours) lay within 400 to 2000 nM.
`COCC(C)n1c(C)c(C(=O)NCc2c(C)cc(C)[nH]c2=O)c2ccccc21` (single isomer, unassigned; peak 2) [Compound 218, (R or S)-N-((4,6-dimethyl-2-oxo-1,2-dihydropyridin-3-yl)methyl)-1-(1-methoxypropan-2-yl)-2-methyl-1H-indole-3-carboxamide-PEAK 2]: the concentration giving a half-maximal response (EC50) in experiment [1] (setting [3]) was under 400 nM.
Still for that read-out and setting: the figure for `CCC(C)n1c(C)c(C(=O)NCc2c(C)cc(C)nc2O)c2ccccc21` (stereo not drawn) [Compound 123, 1-sec-butyl-N-((2-hydroxy-4,6-dimethylpyridin-3-yl)methyl)-2-methyl-1H-indole-3-carboxamide] is 400 to 2000 nM.

By IC50 is commonly meant the concentration at which inhibition is half-maximal. What is called EC50 is the concentration at which the effect is half-maximal.
